From the NIST ThermoML archive (doi:10.1016/j.jct.2015.04.027)

Assay: xn = mol fraction of the nth substance listed
Settings: 100 kPa, Liquid; for viscosity: Falling or rolling sphere viscometry; for mass density: Vibrating tube method

CN(C)C(=[NH2+])N(C)C.c1c[n-]cn1 [1,1,3,3-tetramethylguanidinium imidazol-1-ide] + CCCO
Settings | mass density, 293.15 K [kg/m3] | mass density, 298.15 K [kg/m3] | mass density, 303.15 K [kg/m3] | mass density, 308.15 K [kg/m3] | mass density, 313.15 K [kg/m3] | viscosity, 293.15 K [mPa·s] | viscosity, 298.15 K [mPa·s] | viscosity, 303.15 K [mPa·s] | viscosity, 308.15 K [mPa·s] | viscosity, 313.15 K [mPa·s]
x1 = 0.0499 | 828.16 | 824.06 | 819.94 | 815.79 | 811.6 | 2.428 | 2.146 | 1.91 | 1.707 | 1.532
x1 = 0.0999 | 849.03 | 844.89 | 840.71 | 836.52 | 832.3 | 2.667 | 2.354 | 2.095 | 1.873 | 1.682
x1 = 0.2002 | 882.18 | 877.95 | 873.7 | 869.43 | 865.15 | 3.294 | 2.886 | 2.55 | 2.268 | 2.029
x1 = 0.2996 | 907.96 | 903.66 | 899.35 | 895.03 | 890.71 | 4.062 | 3.516 | 3.078 | 2.712 | 2.406
x1 = 0.4002 | 928.67 | 924.33 | 919.98 | 915.62 | 911.26 | 4.872 | 4.168 | 3.606 | 3.154 | 2.778
x1 = 0.4988 | 945.34 | 940.97 | 936.59 | 932.2 | 927.81 | 5.686 | 4.798 | 4.126 | 3.577 | 3.129
x1 = 0.6264 | 962.87 | 958.47 | 954.06 | 949.65 | 945.24 | 6.646 | 5.548 | 4.716 | 4.052 | 3.512
x1 = 0.8001 | 981.42 | 976.99 | 972.55 | 968.12 | 963.7 | 7.842 | 6.46 | 5.443 | 4.625 | 3.991
x1 = 0.9006 | 990.16 | 985.73 | 981.29 | 976.85 | 972.41 | 8.401 | 6.898 | 5.825 | 4.927 | 4.225
x1 = 1 | 997.25 | 992.8 | 988.35 | 983.9 | 979.46 | 8.952 | 7.287 | 6.044 | 5.097 | 4.358
